Results taken from patent US8093265B2, “Bicycloheteroaryl compounds as P2X7 modulators and uses thereof” (Renovis, Inc., priority 2007, dated 2012).

Tests used:
[1] = Half-life in human liver microsomes (HLM); assay type: in vitro ADME; settings: human liver microsomes 0.78 mg/mL, 1 μM compound, NADPH, 37° C.; for half-life at 1 μM: pH 7.4
Procedure: Half-Life in Human Liver Microsomes (HLM)
Test compounds (1 μM) are incubated with 3.3 mM MgCl2 and 0.78 mg/mL HLM (HL101) in 100 mM potassium phosphate buffer (pH 7.4) at 37° C. on the 96-deep well plate. The reaction mixture is split into two groups, a non-P450 and a P450 group. NADPH is only added to the reaction mixture of the P450 group. An aliquot of samples of P450 group is collected at 0, 10, 30, and 60 min time point, where 0 min time point indicated the time when NADPH is added into the reaction mixture of P450 group. […] Collected aliquots are extracted with acetonitrile solution containing an internal standard. […] The compound concentration in supernatant is measured by LC/MS/MS system.
The half-life value is obtained by plotting the natural logarithm of the peak area ratio of compounds/internal standard versus time. The slope of the line of best fit through the points yields the rate of metabolism (k). This is converted to a half-life value using following equations: Half-life=ln 2/k

[2] = Pharmacokinetic evaluation following intravenous and oral administration in rats; assay type: in vivo, rat; settings: male Sprague-Dawley rats; PO 1 to 5 mg/kg vs IV 1 mg/kg; AUCinf(PO)/AUCinf(IV) dose-normalized
Procedure: Pharmacokinetic Evaluation of Compounds Following Intravenous and Oral Administration in Rats.
Male Sprague-Dawley rats are acclimated for at least 24 hours prior to experiment initiation. During the acclimation period, all animals receive food and water ad libitum. However, food but not water is removed from the animals' cages at least 12 hours before initiation of the experiment. During the first 3 hours of experimentation, the animals receive only water ad libitum. At least three animals each are tested for intravenous and oral dosage. For intravenous formulation, compounds are dissolved (0.25 to 1 mg/mL) in a mixture of 3% dimethyl sulfoxide, 40% PEG 400 and the rest percentage of 40% Captisol in water (w/v). The animals are weighed before dosing. The determined body weight is used to calculate the dose volume for each animal. Dose volume (mL/kg)=1 mg/kg/formulation concentration (mg/mL)
In instances where the formulation concentrations are less than 0.5 mg/mL, the dosing volume is about 2 mL/kg.
For oral formulation, compounds of this invention are suspended (0.5 to 0.75 mg/mL) in a mixture of 5% of 10% Tween 80 in water (v/v) and 95% of 0.5% methyl cellulose in water (w/v). PO rats are typically dosed through oral gavage following the same dose volume formula as IV to achieve a dose level of 1 to 5 mg/kg. For IV dosing, blood samples are collected (using a pre-heparinized syringe) via the jugular vein catheter at 2, 5, 15, 30, 60, 120, 180, 300, 480, and 1440 minutes post dosing. For PO dosing blood samples are collected (using a pre-heparinized syringe) via the jugular vein catheter before dosing and at 5, 15, 30, 60, 120, 180, 300, 480, and 1440 minutes post dosing. About 250 uL of blood is obtained at each time point from the animal. Equal volumes of 0.9% normal saline are replaced to prevent dehydration. The whole blood samples are maintained on ice until centrifugation. Blood samples are then centrifuged at 14,000 rpm for 10 minutes at 4° C., and the upper plasma layer is then transferred into a clean vial and stored at −80° C. The resulting plasma samples are then analyzed by liquid chromatography-tandem mass spectrometry. Following the measurement of plasma samples and dosing solutions, plasma concentration-time curve is plotted. Plasma exposure is calculated as the area under the concentration-time curve extrapolated to time infinite (AUCinf). The AUCinf is averaged and the oral bioavailability (% F) for individual animal is calculated as: • AUCinf(PO)/AUCinf(IV), normalized to their respective dose levels.
The % F can be reported as the mean % F of all animals dosed orally with the compound of the invention at the specified level.
For the purpose of Table 3, the oral bioavailability of each compound is expressed as follows: […]

[3] = target: T1, P2X7 receptor (Homo sapiens, UniProt Q99572); assay: IL-1β release assay in differentiated THP-1 cells (Example 9); assay type: cell-based; settings: THP-1 cells differentiated with LPS and IFN-γ; 30 min pretreatment; BzATP 250 uM; IL-1β by ELISA
T1 construct: host or cells: THP-1 cells differentiated with LPS and IFN-γ
T1 sequence (Q99572 1-595): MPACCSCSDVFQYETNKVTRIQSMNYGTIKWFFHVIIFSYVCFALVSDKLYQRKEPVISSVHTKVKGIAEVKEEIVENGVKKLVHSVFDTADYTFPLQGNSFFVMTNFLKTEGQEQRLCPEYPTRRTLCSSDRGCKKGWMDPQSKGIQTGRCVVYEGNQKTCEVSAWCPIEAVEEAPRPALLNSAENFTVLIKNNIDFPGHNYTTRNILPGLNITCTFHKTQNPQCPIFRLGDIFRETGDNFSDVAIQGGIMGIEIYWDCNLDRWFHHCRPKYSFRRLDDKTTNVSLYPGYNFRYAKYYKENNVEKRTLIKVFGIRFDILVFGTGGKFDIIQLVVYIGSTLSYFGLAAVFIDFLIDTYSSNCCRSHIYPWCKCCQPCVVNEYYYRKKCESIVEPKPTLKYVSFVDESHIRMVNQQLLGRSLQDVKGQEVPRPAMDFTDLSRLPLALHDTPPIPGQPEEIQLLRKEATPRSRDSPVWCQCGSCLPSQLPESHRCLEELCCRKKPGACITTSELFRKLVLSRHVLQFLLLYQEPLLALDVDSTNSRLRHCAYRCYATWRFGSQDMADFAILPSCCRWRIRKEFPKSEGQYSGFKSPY
Procedure: THP-1 cells (ATCC Cat #285-IF-100) are plated in 96 well plates at a concentration of 200,000 cells per well and allowed to differentiate in RPMI-1640 media (ATCC Cat #30-2001) containing 10% FBS, 100 IU/mL penicillin, 100 ug/mL streptomycin, 100 ng/mL LPS and 100 ng/mL IFN-γ for 16 hours. Following differentiation, the cells are treated for an additional 2 hours in RPMI-1640 media containing 100 IU/mL penicillin, 100 ug/mL streptomycin and fresh LPS at 100 ng/mL. The cells are then pretreated for 30 minutes with the compound of interest at the appropriate concentration in RPMI media containing 100 IU/mL penicillin, 100 ug/mL streptomycin. Following the pretreatment 2′,3′-O-(4-benzoylbenzoyl)-adenosine 5′-triphosphate (Sigma Aldrich Cat # B6396) is added to a final concentration of 250 uM, and the cells are incubated for an additional 45 minutes. 30 uL of cell supernatant is then collected and IL-1β levels are determined via ELISA (R&D systems Cat. # HSLB50) according to manufacturer's recommendations using a Tecan Safire plate reader. Background adjusted IL-1β levels of drug treated and non-treated cells are used to calculate the percent inhibition.
The following compounds have been or can be prepared according to the synthetic methods described herein for example, methods A-AA1. The compounds set forth in Table 1 were tested for activity in a cellular model as described herein. Specifically, cells were pretreated with differing amounts of the compound under test and released IL-1β determined as in Example 9, above. Measurements were made and IC50 values, presented in Table 1, below, were determined by fitting the data to a four parameter logistic equation using GraphPad Prism software (GraphPad Software, Inc). The equation may be expressed by the following formula: Y=Bottom+(Top−Bottom)/(1+10^((Log EC50−X)*HillSlope)) where X is the logarithm of concentration, Y is the response and Y starts at Bottom and goes to Top with a sigmoid shape.

[4] = Plasma protein binding by equilibrium dialysis, human plasma; assay type: in vitro ADME; settings: pH 7.4, equilibrium dialysis 16 hr at 37° C., % Bound
Procedure: The plasma protein binding of compounds of invention is measured in human and rat plasma, respectively. A stock solution of the tested compound is prepared in 1 mg/mL in DMSO solution. The stock solution is spiked into the blank plasma to get a final compound concentration at 1 μg/mL for testing. Equilibrium dialysis (The equilibrium dialyzer-96TM MWCO 5K Daltons, Harvard Apparatus) method is used for the testing purpose.
The compound spiked plasma (at […]) and phosphate buffer (0.1 M, pH 7.4), 200 μl each, are added into the opposite sides of the membrane in a 96-well equilibrium dialyzer, respectively. The dialyzer plate is covered and incubated overnight (16 hr) at 37° C. in the 8-plate rotor incubator (Big Shot III 8-plate rotor, Harvard Apparatus). Aliquots (100 μL) are taken from the plasma and the buffer compartments, respectively. The matrix effects are eliminated by adding the same volume of blank plasma into the samples from buffer compartments and adding the same volume of phosphate buffer into the samples from plasma compartments. The samples are extracted by using the regular (3:1) protein precipitation extraction procedure (acetonitrile with internal standard). The supernatants are taken for LC/MS/MS analysis. The percentage of plasma-protein binding can be calculated by using the following method: % Free=[Free Drug/Total Drug]*100=[(Peak Area)buffer/(Peak Area)plasma]*100 % Bound=100−% Free.
For the purpose of Table 4, the plasma protein binding of each compound is expressed as follows: […]

Row | SMILES | half-life at 1 μM [1] [h] | Oral Bioavailability F (%) [2] | IC50 [3] [nM] | fraction unbound at 16 hr, 1 μg/mL [4] | Half Life [1] [h]
1 | Cc1ccc2c(=O)n([C@H]3CCNC3)ccc2c1NC(=O)Cc1ccc(C(F)(F)F)c(F)c1 [Compound 29, 2-(3-Fluoro-4-trifluoromethyl-phenyl)-N-((S)-6-methyl-1-oxo-2-pyrrolidin-3-yl-1,2-dihydro-isoquinolin-5-yl)-acetamide] | 3.5 | + (0-25% F) | 23 | – | –
2 | C[C@H](CO)n1ccc2c(C(=O)NCC3(O)CCC(F)(F)CC3)c(Cl)ccc2c1=O [Compound 68] | 0.65 | – | 3 | 0.25 to 0.49 | –
3 | C[C@H](CO)n1ccc2c(C(=O)NCc3ccc(C(F)(F)F)c(F)c3)c(Cl)ccc2c1=O [Compound 41, 6-Chloro-2-((R)-2-hydroxy-1-methyl-ethyl)-1-oxo-1,2-dihydro-isoquinoline-5-carboxylic acid 3-fluoro-4-trifluoromethyl-benzylamide] | 3 | – | 7 | < 0.1 | –
4 | C[C@H](CO)n1ccc2c(C(=O)NCC3(O)CCC(C(F)(F)F)CC3)c(Cl)ccc2c1=O (stereo partly drawn) [Compound 56, 6-Chloro-2-((R)-2-hydroxy-1-methyl-ethyl)-1-oxo-1,2-dihydro-isoquinoline-5-carboxylic acid (1-hydroxy-4-trifluoromethyl-cyclohexylmethyl)-amide] | 0.7 | – | 9 | 0.25 to 0.49 | –
5 | Cc1ccc2c(=O)n([C@H](C)CO)ccc2c1NC(=O)Cc1ccc(C(F)(F)F)cc1 [Compound 25, N-[2-((R)-2-Hydroxy-1-methyl-ethyl)-6-methyl-1-oxo-1,2-dihydro-isoquinolin-5-yl]-2-(4-trifluoromethyl-phenyl)-acetamide] | 4.6 | – | 6 | 0.1 to 0.24 | –
6 | Cc1ccc2c(=O)n([C@H](C)CO)ccc2c1NC(=O)Cc1ccc(C(F)(F)F)c(F)c1 [Compound 21, N-[6-Methyl-2-((R)-2-hydroxy-1-methyl-ethyl)-1-oxo-1,2-dihydro-isoquinolin-5-yl]-2-(3-fluoro-4-trifluoromethyl-phenyl)-acetamide] | – | – | 0.4 | < 0.1 | 1.5
7 | C[C@H](CO)n1ccc2c(C(=O)NCC3(O)CCC4(CC3)CC4(F)F)c(Cl)ccc2c1=O (some centres unmarked) [Compound 65] | 0.62 | – | 0.3 | 0.25 to 0.49 | –
8 | Cc1ccc2c(=O)n(CCO)ccc2c1NC(=O)Cc1ccc(C(F)(F)F)c(F)c1 [Compound 28, 2-(3-Fluoro-4-trifluoromethyl-phenyl)-N-[2-(2-hydroxy-ethyl)-6-methyl-1-oxo-1,2-dihydro-isoquinolin-5-yl]-acetamide] | – | – | 9 | < 0.1 | 3.7
9 | C[C@H](CO)n1ccc2c(NC(=O)Cc3ccc(F)c(C(F)(F)F)c3)c(Cl)ccc2c1=O [Compound 13, N-[6-Chloro-2-((R)-2-hydroxy-1-methyl-ethyl)-1-oxo-1,2-dihydro-isoquinolin-5-yl]-2-(4-fluoro-3-trifluoromethyl-phenyl)-acetamide] | – | – | 0.4 | < 0.1 | 1.0
10 | Cc1ccc2c(=O)n([C@H](C)CO)ccc2c1C(=O)NCc1cccc(C(F)(F)F)c1 [Compound 42, 2-((R)-2-Hydroxy-1-methyl-ethyl)-6-methyl-1-oxo-1,2-dihydro-isoquinoline-5-carboxylic acid 3-trifluoromethyl-benzylamide] | 0.8 | – | 7 | < 0.1 | –
11 | Cc1ccc2c(=O)n([C@H](C)CO)ccc2c1NC(=O)Cc1cccc(C(F)(F)F)c1F [Compound 23, 2-(2-Fluoro-3-trifluoromethyl-phenyl)-N-[2-((R)-2-hydroxy-1-methyl-ethyl)-6-methyl-1-oxo-1,2-dihydro-isoquinolin-5-yl]-acetamide] | 1.4 | – | 11 | < 0.1 | –
12 | Cc1ccc2c(=O)n([C@H](C)CN3CC[C@@H](N)C3)ccc2c1NC(=O)Cc1ccc(C(F)(F)F)c(F)c1 [Compound 67] | – | – | 2 | 0.1 to 0.24 | –
13 | Cc1ccc2c(=O)n([C@H](C)CO)ccc2c1C(=O)NCc1ccc(C(F)(F)F)c(F)c1 [Compound 40, 2-((R)-2-Hydroxy-1-methyl-ethyl)-6-methyl-1-oxo-1,2-dihydro-isoquinoline-5-carboxylic acid 3-fluoro-4-trifluoromethyl-benzylamide] | 2.6 | – | 3 | 0.1 to 0.24 | –
